Data published in the supplement of paper PMC10307832.

Assays:
Assay in all cases: relative viability (nuclei count vs DMSO), 5 days (fraction); higher = more cells survive
[1] = compound: Cc1ccc2nc(NCCN)c3ncc(C)n3c2c1 + NC(=O)Nc1cc(-c2cccc(F)c2)sc1C(=O)N[C@H]1CCCNC1 [AZD7762] (partner 0.2 µM)
Outline: (§1)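 Lung cancer cell lines in 1536-well plates were dosed by pin tool the day after seeding, either with one drug alone or with a fixed anchor-drug dose plus five library-drug doses (not always all listed) in √10 steps. After 5 days, cells were fixed and their nuclei stained in one step (final 0.05% Triton X-100, 1% formaldehyde, 1 ug/ml Hoechst), then counted on 4× images. Relative viability is the nuclei count in treated wells divided by that in vehicle wells. Values are medians of duplicate plates.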

[2] = compound: Cc1ccc2nc(NCCN)c3ncc(C)n3c2c1 + CC(=O)c1c(C)c2cnc(Nc3ccc(N4CCNCC4)cn3)nc2n(C2CCCC2)c1=O [Palbociclib] (partner 0.5 µM)
Outline: as §1

[3] = compound: O=C(/C=C/c1ccccc1)NC(NC(=S)Nc1cccc2cccnc12)C(Cl)(Cl)Cl [Salubrinal] + Nc1ncn([C@H]2C[C@H](O)[C@@H](CO)O2)c(=O)n1 [Decitabine] (partner 2 µM)
Outline: as §1

[4] = compound: O=C(/C=C/c1ccccc1)NC(NC(=S)Nc1cccc2cccnc12)C(Cl)(Cl)Cl [Salubrinal] + C[C@@H](Oc1cc(-c2cnn(C3CCNCC3)c2)cnc1N)c1c(Cl)ccc(F)c1Cl [Crizotinib] (partner 1 µM)
Outline: as §1

Cell Line	relative viability ([1]; first compound 0.04 µM)	relative viability ([1]; first compound 0.1265 µM)	relative viability ([1]; first compound 0.4 µM)	relative viability ([1]; first compound 1.265 µM)	relative viability ([1]; first compound 4 µM)	relative viability ([2]; first compound 0.04 µM)	relative viability ([2]; first compound 0.1265 µM)	relative viability ([2]; first compound 0.4 µM)	relative viability ([2]; first compound 1.265 µM)	relative viability ([2]; first compound 4 µM)	relative viability ([3]; first compound 0.08 µM)	relative viability ([3]; first compound 0.253 µM)	relative viability ([3]; first compound 0.8 µM)	relative viability ([3]; first compound 2.53 µM)	relative viability ([3]; first compound 8 µM)	relative viability ([4]; first compound 0.08 µM)	relative viability ([4]; first compound 0.253 µM)	relative viability ([4]; first compound 0.8 µM)	relative viability ([4]; first compound 2.53 µM)	relative viability ([4]; first compound 8 µM)
NCI-H522	0.754	0.778	0.634	0.843	0.765	0.83	1.17	1.01	1.04	0.87	0.711	1.19	0.617	0.705	0.729	–	–	–	–	–
HCC-15	1.23	1.27	1.19	1.17	1.18	0.789	0.773	0.616	0.708	0.485	0.723	0.555	0.773	0.762	0.61	0.984	0.651	0.946	0.883	0.785
A-427	0.816	0.748	0.748	0.721	0.723	0.531	0.485	0.496	0.506	0.555	0.575	0.564	0.57	0.539	0.597	0.896	0.899	1.05	0.85	0.895
NCI-H2228	–	–	–	–	–	0.649	0.763	0.908	0.782	0.648	–	–	–	–	–	0.496	0.446	0.632	0.353	0.362
NCI-H1734	0.573	0.596	0.517	0.559	0.546	0.319	0.367	0.369	0.319	0.254	0.573	0.51	0.527	0.474	0.477	0.694	0.774	0.842	0.674	0.772
PC-14	0.388	0.298	0.239	0.399	0.287	0.447	0.488	0.475	0.386	0.244	0.211	0.228	0.201	0.189	0.236	0.927	0.853	0.935	0.885	0.914
NCI-H1915	0.646	0.702	0.551	0.728	0.704	0.512	0.51	0.39	0.552	0.488	0.249	–	0.268	0.248	0.246	0.994	0.643	1.03	0.875	0.836
NCI-H1666	0.903	0.961	0.774	0.756	0.841	0.664	0.675	0.598	0.611	0.665	0.741	0.726	0.788	0.712	0.895	1.17	0.852	1.14	0.784	0.94
HCC-366	0.272	0.278	0.318	0.228	0.239	0.409	0.392	0.343	0.382	0.352	0.371	–	0.374	0.392	0.301	0.798	0.437	0.777	0.393	0.55
NCI-H2170	0.874	0.897	0.821	0.761	0.845	0.388	0.445	0.356	0.381	0.342	0.483	0.452	0.496	0.472	0.461	1.45	1.06	1.38	1.26	1.21
SW 1573	–	–	–	–	–	0.396	0.461	0.399	0.428	0.134	0.697	0.372	0.609	0.488	0.555	0.653	0.747	0.866	0.781	0.898
NCI-H661	–	–	–	–	–	0.423	0.452	0.407	0.439	0.477	0.602	0.474	0.57	0.474	0.536	0.934	–	1.1	1.01	1.17
PC-3 [JPC-3]	0.883	0.623	0.829	0.728	0.591	0.56	0.56	0.552	0.513	0.512	0.848	0.836	0.891	0.848	0.81	1.08	0.679	1.11	0.976	0.997
NCI-H2342	0.548	0.655	0.479	0.452	0.479	0.626	0.552	0.479	0.532	0.531	0.797	0.82	0.657	0.769	0.595	–	–	–	–	–
Calu-6	–	–	–	–	–	–	–	–	–	–	–	–	–	–	–	0.949	0.644	0.898	0.821	0.728
LC-2-ad	0.86	0.806	0.822	0.86	0.795	0.469	0.524	0.482	0.51	0.452	0.751	0.63	0.792	0.771	0.813	0.447	0.385	0.537	0.471	0.459
CAL-12T	0.657	0.649	0.557	0.576	0.481	0.499	0.47	0.39	0.376	0.48	–	–	–	–	–	0.661	0.484	0.806	0.48	0.446
RERF-LC-KJ	1.09	0.934	0.828	0.942	0.838	0.969	1	1.14	1.08	0.881	0.834	0.605	0.792	0.697	0.598	0.81	0.718	0.803	0.806	0.887
NCI-H1650	–	–	–	–	–	0.303	0.375	0.324	0.349	0.226	0.522	0.453	0.417	0.476	0.455	1.06	0.859	1.02	0.882	0.942
BEN	0.719	0.738	0.538	0.68	0.783	0.506	0.484	0.479	0.465	0.48	0.711	0.726	0.865	0.741	0.766	1.02	0.734	0.996	0.858	0.852
EMC-BAC-2	1.2	1.11	1.04	1.06	1.02	0.55	0.536	0.509	0.521	0.486	0.992	0.879	1.01	0.991	1.05	0.749	0.676	0.811	0.721	0.76

Cell Line	relative viability ([1]; first compound 0.04 µM)	relative viability ([1]; first compound 0.1265 µM)	relative viability ([1]; first compound 0.4 µM)	relative viability ([1]; first compound 1.265 µM)	relative viability ([1]; first compound 4 µM)	relative viability ([2]; first compound 0.04 µM)	relative viability ([2]; first compound 0.1265 µM)	relative viability ([2]; first compound 0.4 µM)	relative viability ([2]; first compound 1.265 µM)	relative viability ([2]; first compound 4 µM)	relative viability ([3]; first compound 0.08 µM)	relative viability ([3]; first compound 0.253 µM)	relative viability ([3]; first compound 0.8 µM)	relative viability ([3]; first compound 2.53 µM)	relative viability ([3]; first compound 8 µM)	relative viability ([4]; first compound 0.08 µM)	relative viability ([4]; first compound 0.253 µM)	relative viability ([4]; first compound 0.8 µM)	relative viability ([4]; first compound 2.53 µM)	relative viability ([4]; first compound 8 µM)
LU99A	0.485	0.425	0.314	0.286	0.354	0.468	0.447	0.434	0.456	0.41	1.05	0.844	0.938	0.951	0.757	0.588	0.635	0.657	0.528	0.5
ABC-1	0.765	0.999	0.798	0.741	0.648	0.785	0.792	0.887	0.649	0.538	1.42	0.915	1.14	1.01	1.13	1.23	0.919	1.22	1.25	1.02
NCI-H1793	0.506	0.411	0.361	0.39	0.417	0.303	0.328	0.283	0.312	0.318	0.625	0.494	0.521	0.467	0.608	–	–	–	–	–
NCI-H1299	–	–	–	–	–	–	–	–	–	–	–	–	–	–	–	0.993	0.802	0.943	0.99	0.925
EBC-1	–	–	–	–	–	–	–	–	–	–	–	–	–	–	–	0.207	0.214	0.22	0.211	0.18
NCI-H2347	0.719	0.733	0.687	0.794	0.636	0.431	0.451	0.417	0.433	0.455	0.598	0.571	0.663	0.649	0.661	0.709	0.709	0.772	0.76	0.719
COR-L23	–	–	–	–	–	0.383	0.301	0.323	0.318	0.323	0.408	0.395	0.451	0.473	0.386	0.749	0.775	0.699	0.563	0.492
COR-L 105	–	–	–	–	–	0.374	0.414	0.43	0.4	0.438	0.807	0.693	0.655	0.712	0.534	0.962	0.624	0.76	0.772	0.689
NCI-H596	1.07	1.08	1.04	0.915	1.11	–	–	–	–	–	1.1	1.02	1.18	0.969	0.863	1.07	0.901	1.07	1.02	1.05
NCI-H2023	–	–	–	–	–	0.369	0.366	0.366	0.433	0.238	0.238	0.219	0.236	0.246	0.221	0.674	0.672	0.68	0.635	0.614
NCI-H1648	0.687	0.682	0.587	0.709	0.737	0.272	0.27	0.237	0.25	0.282	0.615	0.483	0.632	0.493	0.366	–	–	–	–	–
NCI-H520	–	–	–	–	–	0.233	0.222	0.215	0.212	0.243	0.551	0.579	0.575	0.501	0.576	0.816	0.489	0.771	0.663	0.681
A549	–	–	–	–	–	–	–	–	–	–	–	0.253	0.245	0.257	0.246	0.864	0.491	0.902	0.702	0.695
NCI-H1563	–	–	–	–	–	–	–	–	–	–	–	–	–	–	–	0.853	0.859	0.878	0.851	0.962
NCI-H1395	0.409	0.435	0.43	0.422	0.398	0.647	0.613	0.597	0.546	0.557	0.792	0.686	0.707	0.67	0.692	–	–	–	–	–
NCI-H2009	–	–	–	–	–	0.238	0.202	0.245	0.275	0.295	0.414	0.396	0.426	0.384	0.384	1.02	0.972	0.955	0.983	0.976
SK-MES-1	–	–	–	–	–	0.341	0.298	0.351	0.341	0.326	0.405	0.359	0.365	0.356	0.495	1.05	1	1	1.02	0.908
IA-LM	–	–	–	–	–	–	–	–	–	–	–	–	–	–	–	0.784	0.602	1.19	0.767	0.575
SK-LU-1	–	–	–	–	–	0.412	0.383	0.385	0.393	0.38	0.609	0.597	0.739	0.685	0.506	1.23	0.717	1.1	0.938	0.841
NCI-H1703	0.131	0.114	–	0.111	0.132	–	–	–	–	–	–	–	–	–	–	0.535	–	1.06	0.701	0.576
SW 900	–	0.56	0.438	0.694	0.736	–	0.522	0.587	0.464	0.589	0.483	0.466	0.512	0.419	0.519	–	–	–	–	–
